Measurements reported in the supplement of paper PMC8612539.
Values after ≈ are worked out from the molar mass of the structure shown.

System: Escherichia coli
Experiment: minimum inhibitory concentration (MIC)
Procedure: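 Broth microdilution MIC (Sensititre BOPO7F bovine plate, CLSI methods) of 19 antimicrobials against field isolates of P. multocida, M. haemolytica, H. somni (deep nasopharyngeal swabs) and E. coli, Enterococcus spp. (rectal swabs) from weaned dairy heifers. Incubation 16-24 h at 35 C. MIC is the lowest concentration preventing visible growth. Values with <= or > lie at the tested range limits. Trimethoprim-sulfamethoxazole is given as the trimethoprim component of a 1:19 mixture.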

NC[C@@H]1O[C@H](O[C@H]2[C@@H](O)[C@H](O[C@@H]3[C@@H](O)[C@H](N)C[C@H](N)[C@H]3O[C@H]3O[C@H](CN)[C@@H](O)[C@H](O)[C@H]3N)O[C@@H]2CO)[C@H](N)[C@@H](O)[C@@H]1O [Neomycin] showed a minimum inhibitory concentration (isolate (source animal id): 8) of 32 µg/mL (≈ 52.1 µM), a minimum inhibitory concentration (isolate (source animal id): 9) of at most 4 µg/mL and a minimum inhibitory concentration (isolate (source animal id): 10) of over 32 µg/mL. For the same compound, the minimum inhibitory concentration (isolate (source animal id): 11) was at most 4 µg/mL, the minimum inhibitory concentration (isolate (source animal id): 12) was at most 4 µg/mL and the minimum inhibitory concentration (isolate (source animal id): 13) was at most 4 µg/mL. The minimum inhibitory concentration (isolate (source animal id): 14) was 32 µg/mL (≈ 52.1 µM), the minimum inhibitory concentration (isolate (source animal id): 15) was at most 4 µg/mL and the minimum inhibitory concentration (isolate (source animal id): 16) was at most 4 µg/mL. The minimum inhibitory concentration (isolate (source animal id): 98) was at most 4 µg/mL, the minimum inhibitory concentration (isolate (source animal id): 99) was at most 4 µg/mL and the minimum inhibitory concentration (isolate (source animal id): 100) was at most 4 µg/mL. It also gave a minimum inhibitory concentration (isolate (source animal id): 101) of at most 4 µg/mL, a minimum inhibitory concentration (isolate (source animal id): 102) of at most 4 µg/mL and a minimum inhibitory concentration (isolate (source animal id): 103) of at most 4 µg/mL. The minimum inhibitory concentration (isolate (source animal id): 104) was at most 4 µg/mL, the minimum inhibitory concentration (isolate (source animal id): 105) was at most 4 µg/mL and the minimum inhibitory concentration (isolate (source animal id): 106) was over 32 µg/mL. It also gave a minimum inhibitory concentration (isolate (source animal id): 107) of at most 4 µg/mL, a minimum inhibitory concentration (isolate (source animal id): 108) of at most 4 µg/mL and a minimum inhibitory concentration (isolate (source animal id): 109) of at most 4 µg/mL. The minimum inhibitory concentration (isolate (source animal id): 110) was at most 4 µg/mL, the minimum inhibitory concentration (isolate (source animal id): 111) was over 32 µg/mL and the minimum inhibitory concentration (isolate (source animal id): 112) was over 32 µg/mL. For the same compound, the minimum inhibitory concentration (isolate (source animal id): 113) was at most 4 µg/mL, the minimum inhibitory concentration (isolate (source animal id): 114) was at most 4 µg/mL and the minimum inhibitory concentration (isolate (source animal id): 115) was over 32 µg/mL. It also gave a minimum inhibitory concentration (isolate (source animal id): 116) of at most 4 µg/mL, a minimum inhibitory concentration (isolate (source animal id): 117) of over 32 µg/mL and a minimum inhibitory concentration (isolate (source animal id): 118) of at most 4 µg/mL. It also gave a minimum inhibitory concentration (isolate (source animal id): 119) of at most 4 µg/mL, a minimum inhibitory concentration (isolate (source animal id): 120) of over 32 µg/mL and a minimum inhibitory concentration (isolate (source animal id): 121) of at most 4 µg/mL. It also gave a minimum inhibitory concentration (isolate (source animal id): 122) of over 32 µg/mL, a minimum inhibitory concentration (isolate (source animal id): 123) of at most 4 µg/mL and a minimum inhibitory concentration (isolate (source animal id): 124) of at most 4 µg/mL. The minimum inhibitory concentration (isolate (source animal id): 125) was at most 4 µg/mL, the minimum inhibitory concentration (isolate (source animal id): 126) was at most 4 µg/mL and the minimum inhibitory concentration (isolate (source animal id): 127) was at most 4 µg/mL. The minimum inhibitory concentration (isolate (source animal id): 128) was at most 4 µg/mL, the minimum inhibitory concentration (isolate (source animal id): 129) was at most 4 µg/mL and the minimum inhibitory concentration (isolate (source animal id): 130) was at most 4 µg/mL. The minimum inhibitory concentration (isolate (source animal id): 131) was at most 4 µg/mL, the minimum inhibitory concentration (isolate (source animal id): 132) was over 32 µg/mL and the minimum inhibitory concentration (isolate (source animal id): 133) was at most 4 µg/mL. For the same compound, the minimum inhibitory concentration (isolate (source animal id): 134) was at most 4 µg/mL, the minimum inhibitory concentration (isolate (source animal id): 135) was at most 4 µg/mL and the minimum inhibitory concentration (isolate (source animal id): 136) was at most 4 µg/mL. For the same compound, the minimum inhibitory concentration (isolate (source animal id): 137) was over 32 µg/mL, the minimum inhibitory concentration (isolate (source animal id): 138) was at most 4 µg/mL and the minimum inhibitory concentration (isolate (source animal id): 139) was at most 4 µg/mL. It also gave a minimum inhibitory concentration (isolate (source animal id): 140) of at most 4 µg/mL, a minimum inhibitory concentration (isolate (source animal id): 141) of over 32 µg/mL and a minimum inhibitory concentration (isolate (source animal id): 142) of at most 4 µg/mL. For the same compound, the minimum inhibitory concentration (isolate (source animal id): 143) was over 32 µg/mL, the minimum inhibitory concentration (isolate (source animal id): 144) was at most 4 µg/mL and the minimum inhibitory concentration (isolate (source animal id): 145) was over 32 µg/mL. It also gave a minimum inhibitory concentration (isolate (source animal id): 146) of at most 4 µg/mL, a minimum inhibitory concentration (isolate (source animal id): 147) of over 32 µg/mL and a minimum inhibitory concentration (isolate (source animal id): 148) of at most 4 µg/mL. The minimum inhibitory concentration (isolate (source animal id): 149) was at most 4 µg/mL, the minimum inhibitory concentration (isolate (source animal id): 150) was over 32 µg/mL and the minimum inhibitory concentration (isolate (source animal id): 151) was at most 4 µg/mL. It also gave a minimum inhibitory concentration (isolate (source animal id): 152) of at most 4 µg/mL, a minimum inhibitory concentration (isolate (source animal id): 153) of at most 4 µg/mL and a minimum inhibitory concentration (isolate (source animal id): 154) of at most 4 µg/mL. The minimum inhibitory concentration (isolate (source animal id): 155) was 32 µg/mL (≈ 52.1 µM), the minimum inhibitory concentration (isolate (source animal id): 156) was over 32 µg/mL and the minimum inhibitory concentration (isolate (source animal id): 157) was at most 4 µg/mL. The minimum inhibitory concentration (isolate (source animal id): 158) was over 32 µg/mL, the minimum inhibitory concentration (isolate (source animal id): 159) was at most 4 µg/mL and the minimum inhibitory concentration (isolate (source animal id): 160) was over 32 µg/mL. For the same compound, the minimum inhibitory concentration (isolate (source animal id): 161) was over 32 µg/mL, the minimum inhibitory concentration (isolate (source animal id): 162) was at most 4 µg/mL and the minimum inhibitory concentration (isolate (source animal id): 163) was at most 4 µg/mL. For the same compound, the minimum inhibitory concentration (isolate (source animal id): 164) was at most 4 µg/mL, the minimum inhibitory concentration (isolate (source animal id): 165) was 32 µg/mL (≈ 52.1 µM) and the minimum inhibitory concentration (isolate (source animal id): 166) was at most 4 µg/mL. The minimum inhibitory concentration (isolate (source animal id): 167) was at most 4 µg/mL, the minimum inhibitory concentration (isolate (source animal id): 168) was at most 4 µg/mL and the minimum inhibitory concentration (isolate (source animal id): 169) was at most 4 µg/mL. For the same compound, the minimum inhibitory concentration (isolate (source animal id): 170) was at most 4 µg/mL, the minimum inhibitory concentration (isolate (source animal id): 171) was at most 4 µg/mL and the minimum inhibitory concentration (isolate (source animal id): 172) was at most 4 µg/mL. The minimum inhibitory concentration (isolate (source animal id): 173) was at most 4 µg/mL, the minimum inhibitory concentration (isolate (source animal id): 174) was at most 4 µg/mL and the minimum inhibitory concentration (isolate (source animal id): 175) was at most 4 µg/mL. The minimum inhibitory concentration (isolate (source animal id): 176) was at most 4 µg/mL, the minimum inhibitory concentration (isolate (source animal id): 177) was at most 4 µg/mL and the minimum inhibitory concentration (isolate (source animal id): 178) was at most 4 µg/mL. It also gave a minimum inhibitory concentration (isolate (source animal id): 179) of at most 4 µg/mL, a minimum inhibitory concentration (isolate (source animal id): 180) of at most 4 µg/mL and a minimum inhibitory concentration (isolate (source animal id): 181) of 32 µg/mL (≈ 52.1 µM). It also gave a minimum inhibitory concentration (isolate (source animal id): 182) of at most 4 µg/mL, a minimum inhibitory concentration (isolate (source animal id): 183) of at most 4 µg/mL and a minimum inhibitory concentration (isolate (source animal id): 184) of at most 4 µg/mL. It also gave a minimum inhibitory concentration (isolate (source animal id): 185) of at most 4 µg/mL, a minimum inhibitory concentration (isolate (source animal id): 186) of at most 4 µg/mL and a minimum inhibitory concentration (isolate (source animal id): 187) of 32 µg/mL (≈ 52.1 µM). For the same compound, the minimum inhibitory concentration (isolate (source animal id): 188) was at most 4 µg/mL.
